Key:
male Sprague-Dawley rats = experiment: Reversal of amphetamine-induced hyperlocomotion; assay type: in vivo, rat; conditions: oral gavage, doses per FIG. 4; amphetamine 1 mg/kg sc
Protocol: Locomotor activity was assessed as mean distance traveled (cm) in standard 16×16 photocell testing chambers measuring 43.2 cm (Length)×43.2 cm (Width)×30.5 cm (Height) (Med Associates, St. Albans, Vt.). Animals were habituated to individual activity chambers for at least 30 min prior to drug administration. Following administration of drug or vehicle, activity was recorded for a 90 minute time period. Data was expressed as the mean (±SEM) distance traveled recorded in 5 min intervals over the test period. The data was analyzed using repeated measures analysis of variance (ANOVA) followed by post-hoc testing using Dunnett's test, when appropriate. A difference was considered significant when p≦0.05. […]
The animals were habituated in Smart Open Field locomotor activity test chambers (Hamilton-Kinder, San Diego, Calif.) with 16×16 photobeams to automatically record locomotor activity for 30 min and then dosed with vehicle or test compound. […] At 60 min, all rats were injected subcutaneously with 1 mg/kg amphetamine or vehicle and then monitored for an additional 60 min. Animals are monitored for a total of 120 minutes. Data are expressed as changes in ambulation defined as total number of beam breaks per 5 min periods.
The data for the dose-response studies were analyzed by a between-group analysis of variance. […]

human mGluR5a receptor = target: T1, human mGluR5a receptor (Homo sapiens, UniProt P41594); experiment: Cell-based functional Ca2+ mobilization assay (FDSS), potentiation of glutamate EC20 response
T1 construct: cDNA subcloned into pcDNA3.1(-)
T1 sequence (P41594 21-1180 isoform P41594-2 limits assumed): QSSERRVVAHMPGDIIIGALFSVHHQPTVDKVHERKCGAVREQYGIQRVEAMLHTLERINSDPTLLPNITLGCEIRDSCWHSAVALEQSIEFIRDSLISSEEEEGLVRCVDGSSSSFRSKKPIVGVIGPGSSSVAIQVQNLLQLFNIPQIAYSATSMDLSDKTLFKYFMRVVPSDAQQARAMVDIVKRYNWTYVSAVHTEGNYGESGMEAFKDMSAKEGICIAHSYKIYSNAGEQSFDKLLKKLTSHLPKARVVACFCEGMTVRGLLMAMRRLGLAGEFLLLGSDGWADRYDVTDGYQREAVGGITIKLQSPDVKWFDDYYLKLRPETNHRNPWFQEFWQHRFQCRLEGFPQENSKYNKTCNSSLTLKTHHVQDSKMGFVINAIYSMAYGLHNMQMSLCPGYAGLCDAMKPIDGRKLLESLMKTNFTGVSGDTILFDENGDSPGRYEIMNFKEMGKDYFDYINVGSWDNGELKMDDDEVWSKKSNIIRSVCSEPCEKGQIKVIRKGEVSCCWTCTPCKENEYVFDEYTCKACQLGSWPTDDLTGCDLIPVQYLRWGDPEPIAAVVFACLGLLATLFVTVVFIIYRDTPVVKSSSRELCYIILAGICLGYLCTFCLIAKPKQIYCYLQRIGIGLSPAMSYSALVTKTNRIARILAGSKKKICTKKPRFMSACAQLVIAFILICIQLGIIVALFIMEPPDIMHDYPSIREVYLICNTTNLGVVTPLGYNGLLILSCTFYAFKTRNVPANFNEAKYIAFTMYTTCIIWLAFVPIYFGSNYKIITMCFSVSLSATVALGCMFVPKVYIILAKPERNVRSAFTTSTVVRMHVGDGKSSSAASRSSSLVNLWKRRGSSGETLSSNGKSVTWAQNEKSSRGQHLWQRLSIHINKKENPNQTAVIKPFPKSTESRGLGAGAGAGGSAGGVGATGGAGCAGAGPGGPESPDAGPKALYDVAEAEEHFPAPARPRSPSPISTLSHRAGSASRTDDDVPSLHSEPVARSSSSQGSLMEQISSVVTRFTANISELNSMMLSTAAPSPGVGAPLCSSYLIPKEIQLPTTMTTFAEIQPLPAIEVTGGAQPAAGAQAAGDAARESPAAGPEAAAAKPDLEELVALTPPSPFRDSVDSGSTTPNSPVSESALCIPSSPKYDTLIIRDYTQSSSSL
In short: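 HEK293A cells stably expressing human mGluR5a (H10H or H12H clones), plated overnight in glutamate-glutamine-free medium, loaded with Ca2+-sensitive dye (e.g. Fluo-4) and read on FDSS.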

Row | SMILES | reversal of amphetamine-induced hyperlocomotion (male Sprague-Dawley rats) | EC50 (human mGluR5a receptor; HEK cells transfected with human mGluR5 (H10H or H12H), in presence of EC20 glutamate, read-out: EC50) [µM] | Emax (human mGluR5a receptor; maximum % effect in concentration-response curve, as percent of response to maximally effective glutamate) [%] | melting point [°C]
1 | O=C1c2cc(COc3ccccc3)nn2CCN1c1ccc(F)cn1 | reversal of amphetamine-induced hyperlocomotion | – | – | –
2 | O=C1c2cc(COc3ccc(O)cc3)nn2CCN1c1ccc(F)cn1 [Example 355] | – | 3.63 | 55 | 212.7

Reference: patent publication US8592422B2, “Bicyclic triazole and pyrazole lactams as allosteric modulators of mGluR5 receptors” (Vanderbilt University, priority 2010, dated 2013)
